{
  "source": "ChEMBL document CHEMBL3638854",
  "about": "“Chemical compounds” (2015)",
  "biological_target": "T1, Ileal sodium/bile acid cotransporter (Homo sapiens, UniProt Q12908)",
  "T1 sequence (Q12908 whole entry)": "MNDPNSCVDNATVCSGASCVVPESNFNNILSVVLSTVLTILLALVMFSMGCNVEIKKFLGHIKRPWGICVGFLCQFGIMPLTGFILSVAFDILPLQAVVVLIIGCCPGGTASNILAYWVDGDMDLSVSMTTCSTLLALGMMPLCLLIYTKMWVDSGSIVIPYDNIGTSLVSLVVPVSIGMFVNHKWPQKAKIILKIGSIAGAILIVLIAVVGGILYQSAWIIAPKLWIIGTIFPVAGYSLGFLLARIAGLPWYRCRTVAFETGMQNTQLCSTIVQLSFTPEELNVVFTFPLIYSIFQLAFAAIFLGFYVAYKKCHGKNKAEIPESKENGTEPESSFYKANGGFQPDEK",
  "test": "Inhibition Assay: On the day of the uptake experiment, 10 mM HEPES was added to Hank's Balanced Salt Solution, and the pH was adjusted to 7.4 with TRIS (HBSSH). The assay buffer was prepared by adding 100 uM [3H]-taurocholate and 10 uM cold taurocholate to room temperature HBSSH. A separate washing buffer was prepared by adding 10 uM cold taurocholate to HBSSH (30 ml per assay plate) and placed on ice. Using 100% DMSO, 8 point, 3-fold dilution curves for each test compound was prepared starting at 200 uM. Similarly, an 8 point dose response curve was prepared of the control compound [(3R,5R)-3-butyl-3-ethyl-7,8-bis(methyloxy)-5-phenyl-2,3,4,5-tetrahydro-1,4-benzothiazepine 1,1-dioxide (Brieaddy, L. E. WO9605188, 1996)] starting at 1.8 mM. Drug plates were created by adding 3 uL of each concentration to a v-bottom 96-well plate then diluted 60-fold with 177 uL of assay buffer. Plates were removed from the incubator and allowed to cool to ambient temperature.",
  "data": [
    {"smiles": "CCCC[C@]1(CC)CS(=O)(=O)c2cc(CN[C@@H](CCS(C)(=O)=O)C(=O)O)c(OC)cc2[C@@H](c2ccccc2)N1", "values": [
      {"measurement": "IC50", "result": 13, "unit": "nM"}
    ]}
  ]
}
